Test results reported in PubChem BioAssay AID330 (DTP/NCI, 2004).
Values joined by “and” are separate entries in the source; they are usually repeats but may differ in a detail not shown here. Equal values may be shown once. Inconclusive results and toxic doses are left out.

Test system: P388 leukemia ip, CD2F1 mice, survival T/C
Experiment: NCI In Vivo Anticancer Drug Screen. Data for tumor model P388 Leukemia (intraperitoneal) in CD2F1 (CDF1) mice
Settings: endpoint: median survival time, higher = longer survival
Summary of the method: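 Mice carrying the transplanted tumor received test compound or vehicle. Survival was recorded in each group, and the value is the treated-group measurement divided by that of the vehicle-treated control group.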

[1] = dose: 100.0 mg/kg/injection, schedule: Q04DX003 (ip), vehicle: saline
[2] = dose: 200.0 mg/kg/injection, schedule: Q04DX003 (ip), vehicle: saline
[3] = dose: 400.0 mg/kg/injection, schedule: Q04DX003 (ip), vehicle: saline
[4] = dose: 60.0 mg/kg/injection, schedule: Q01DX005 (ip), vehicle: saline with Tween-80
[5] = dose: 120.0 mg/kg/injection, schedule: Q01DX005 (ip), vehicle: saline with Tween-80
[6] = dose: 240.0 mg/kg/injection, schedule: Q01DX005 (ip), vehicle: saline with Tween-80
[7] = dose: 50.0 mg/kg/injection, schedule: Q01DX009 (ip), vehicle: other
[8] = dose: 100.0 mg/kg/injection, schedule: Q01DX009 (ip), vehicle: other
[9] = dose: 25.0 mg/kg/injection, schedule: Q01DX009 (ip), vehicle: saline with Tween-80
[10] = dose: 50.0 mg/kg/injection, schedule: Q01DX005 (ip), vehicle: saline with Tween-80
[11] = dose: 100.0 mg/kg/injection, schedule: Q01DX005 (ip), vehicle: saline with Tween-80

With `Nc1c[n+]([O-])ccn1` the T/C [1] was 101 % of control, the T/C [2] was 98 % of control and the T/C [3] was 93 % of control.

`COc1ccc(C(C)(OC)c2cc(C(C)(C)C)c(O)c(C(C)(C)C)c2)cc1` (stereo unspecified) was tested, and the T/C (dose: 50.0 mg/kg/injection, schedule: Q01DX005 (ip), vehicle: saline + Tween-80 + alcohol) was 104 % of control, the T/C (dose: 100.0 mg/kg/injection, schedule: Q01DX005 (ip), vehicle: saline + Tween-80 + alcohol) was 101 % of control and the T/C (dose: 200.0 mg/kg/injection, schedule: Q01DX005 (ip), vehicle: saline + Tween-80 + alcohol) was 102 % of control.

`CC1(C(=O)O)CCCC2(C)C3CC(=O)OC3(CC(=O)O)CCC12` (stereo unspecified) was tested, and the T/C (dose: 7.5 mg/kg/injection, schedule: Q01DX009 (ip), vehicle: saline + alcohol) was 91 % of control, the T/C (dose: 15.0 mg/kg/injection, schedule: Q01DX009 (ip), vehicle: saline + alcohol) was 98 % of control and the T/C (dose: 30.0 mg/kg/injection, schedule: Q01DX009 (ip), vehicle: saline + alcohol) was 103 % of control.

`O=C1C=C(N(CCCl)CCCl)C(=O)C=C1N(CCCl)CCCl` was tested, and the T/C (dose: 50.0 mg/kg/injection, schedule: Q04DX003 (ip), vehicle: Klucel (hydroxypropylcellulose) (HPC)) was 101 % of control and the T/C (dose: 200.0 mg/kg/injection, schedule: Q04DX003 (ip), vehicle: Klucel (hydroxypropylcellulose) (HPC)) was 178 % of control.

`CC(C)(C)C1=NN=C(C(C)(C)C)CSC1` was tested, and the T/C [4] was 108 % of control, the T/C [5] was 103 % of control and the T/C [6] was 104 % of control.

`Cc1cc(=O)oc2cc(OC(=O)C(CCCCN)NC(=O)OCc3ccccc3)ccc12` (stereo unspecified) was tested, and the T/C (dose: 6.25 mg/kg/injection, schedule: Q01DX009 (ip), vehicle: other) was 101 % of control, the T/C (dose: 12.5 mg/kg/injection, schedule: Q01DX009 (ip), vehicle: other) was 99 % of control and the T/C (dose: 25.0 mg/kg/injection, schedule: Q01DX009 (ip), vehicle: other) was 121 % of control. For the same molecule, the T/C [7] was 114 % of control and the T/C [8] was 117 % of control.

`COc1ccc(C(=O)c2ncccc2C)cc1OC` was tested, and the T/C [7] was 95 % of control, the T/C [8] was 99 % of control and the T/C (dose: 200.0 mg/kg/injection, schedule: Q01DX009 (ip), vehicle: other) was 95 % of control.

For `CCn1c2ccccc2n2c(=O)cc(-c3ccccc3)c(C#N)c12`, the T/C [4] was 98 % of control, the T/C [5] was 106 % of control and the T/C [6] was 97 % of control.

For `COc1ccc(CCNCc2cccc(O)c2)cc1OC`, the T/C (dose: 50.0 mg/kg/injection, schedule: Q01DX009 (ip), vehicle: Klucel (hydroxypropylcellulose) (HPC)) was 90 % of control, the T/C (dose: 100.0 mg/kg/injection, schedule: Q01DX009 (ip), vehicle: Klucel (hydroxypropylcellulose) (HPC)) was 92 % of control and the T/C (dose: 200.0 mg/kg/injection, schedule: Q01DX009 (ip), vehicle: Klucel (hydroxypropylcellulose) (HPC)) was 88 % of control.

In the case of `Clc1nc2nc[nH]c2nc1Cl`, the T/C (dose: 11.0 mg/kg/injection, schedule: Q01DX009 (ip), vehicle: saline with Tween-80) was 100 % of control, the T/C (dose: 16.5 mg/kg/injection, schedule: Q01DX009 (ip), vehicle: saline with Tween-80) was 104 % of control and the T/C [9] was 100 % of control. For the same molecule, the T/C (dose: 25.0 mg/kg/injection, schedule: Q04DX003 (ip), vehicle: saline with Tween-80) was 91 % of control and the T/C (dose: 37.5 mg/kg/injection, schedule: Q01DX009 (ip), vehicle: saline with Tween-80) was 100 % of control.

`CC1(C)NC(=O)N(CN2CCOCC2)C1=O` was tested, and the T/C (dose: 30.0 mg/kg/injection, schedule: Q01DX005 (ip), vehicle: saline) was 104 % of control, the T/C (dose: 60.0 mg/kg/injection, schedule: Q01DX005 (ip), vehicle: saline) was 109 % of control and 111 % of control and 93 % of control and the T/C (dose: 120.0 mg/kg/injection, schedule: Q01DX005 (ip), vehicle: saline) was 106 % of control and 119 % of control and 123 % of control. The T/C (dose: 240.0 mg/kg/injection, schedule: Q01DX005 (ip), vehicle: saline) was 106 % of control and 116 % of control and 120 % of control.

In the case of `COCCOCCOCCOCCOCCOCCOCCOC(=O)CCn1cc(F)c(=O)[nH]c1=O`, the T/C (dose: 62.5 mg/kg/injection, schedule: Q04DX002 (ip), vehicle: saline) was 99 % of control, the T/C (dose: 125.0 mg/kg/injection, schedule: Q04DX002 (ip), vehicle: saline) was 108 % of control and the T/C (dose: 250.0 mg/kg/injection, schedule: Q04DX002 (ip), vehicle: saline) was 101 % of control. The T/C (dose: 500.0 mg/kg/injection, schedule: Q04DX002 (ip), vehicle: saline) was 109 % of control.

`CN(C)C1C(=O)C(C(N)=O)=C(O)C2(O)C(=O)C3=C(O)c4c(O)cccc4C(C)(O)C3CC12.[Cl][Sb]([Cl])[Cl]` (stereo unspecified) was tested, and the T/C [10] was 119 % of control and the T/C [11] was 108 % of control.

For `Cc1ocnc1Cc1ccc(O)c(O)c1`, the T/C (dose: 100.0 mg/kg/injection, schedule: Q01DX001 (ip), vehicle: saline) was 101 % of control, the T/C (dose: 200.0 mg/kg/injection, schedule: Q01DX001 (ip), vehicle: saline) was 96 % of control and the T/C (dose: 400.0 mg/kg/injection, schedule: Q01DX001 (ip), vehicle: saline) was 98 % of control.

In the case of `CC1(C)C2CCC(C2)C1C(=O)CCN1CCc2ccccc2C1` (stereo unspecified), the T/C (dose: 12.5 mg/kg/injection, schedule: Q01DX009 (ip), vehicle: saline with Tween-80) was 106 % of control, the T/C [9] was 107 % of control and the T/C (dose: 50.0 mg/kg/injection, schedule: Q01DX009 (ip), vehicle: saline with Tween-80) was 107 % of control.

For `Cn1c(=O)c2[nH]c(C3COCCO3)nc2n(C)c1=O` (stereo unspecified), the T/C [4] was 91 % of control and the T/C [6] was 87 % of control.

With `c1cc2n(n1)CCN2` the T/C (dose: 12.5 mg/kg/injection, schedule: Q01DX009 (ip), vehicle: saline) was 104 % of control, the T/C (dose: 25.0 mg/kg/injection, schedule: Q01DX009 (ip), vehicle: saline) was 109 % of control and the T/C (dose: 50.0 mg/kg/injection, schedule: Q01DX009 (ip), vehicle: saline) was 100 % of control and 104 % of control. For the same molecule, the T/C (dose: 80.0 mg/kg/injection, schedule: Q01DX009 (ip), vehicle: saline) was 111 % of control, the T/C (dose: 100.0 mg/kg/injection, schedule: Q01DX009 (ip), vehicle: saline) was 111 % of control and 120 % of control and the T/C (dose: 120.0 mg/kg/injection, schedule: Q01DX009 (ip), vehicle: saline) was 113 % of control. The T/C (dose: 200.0 mg/kg/injection, schedule: Q01DX009 (ip), vehicle: saline) was 100 % of control, the T/C (dose: 225.0 mg/kg/injection, schedule: Q03DX003 (ip), vehicle: saline) was 111 % of control and the T/C (dose: 264.0 mg/kg/injection, schedule: Q04DX003 (ip), vehicle: saline) was 100 % of control. For the same molecule, the T/C (dose: 300.0 mg/kg/injection, schedule: Q03DX003 (ip), vehicle: saline) was 111 % of control, the T/C (dose: 375.0 mg/kg/injection, schedule: Q03DX003 (ip), vehicle: saline) was 124 % of control and the T/C [3] was 118 % of control.

For `COc1cc2cccnc2c2[nH]c(=O)c3c(c12)CCC3`, the T/C [1] was 101 % of control and the T/C [2] was 99 % of control.

In the case of `CN(C)N1C(=O)c2c(Cl)c(Cl)c(Cl)c(Cl)c2C1=O`, the T/C [10] was 94 % of control and the T/C [11] was 89 % of control.

For `Cc1c2c(c(C)c3c1C(=O)c1cc4c(cc1C3=O)OCO4)OCO2`, the T/C [4] was 92 % of control, the T/C [5] was 99 % of control and the T/C [6] was 102 % of control.

In the case of `COC(=O)c1nc(N)nc(C(=O)OC)c1C(=O)c1ccc(C)cc1`, the T/C [4] was 98 % of control and the T/C [5] was 100 % of control.

`NC(=O)C[CH2][Sn]([Cl])([Cl])[CH2]CC(N)=O` was tested, and the T/C (dose: 50.0 mg/kg/injection, schedule: Q01DX005 (ip), vehicle: saline) was 98 % of control, the T/C (dose: 100.0 mg/kg/injection, schedule: Q01DX005 (ip), vehicle: saline) was 98 % of control and the T/C (dose: 200.0 mg/kg/injection, schedule: Q01DX005 (ip), vehicle: saline) was 105 % of control.

In the case of `CC1(c2ccco2)NC(=O)NC1=O` (stereo unspecified), the T/C (dose: 100.0 mg/kg/injection, schedule: Q04DX003 (ip), vehicle: saline with Tween-80) was 90 % of control, the T/C (dose: 200.0 mg/kg/injection, schedule: Q04DX003 (ip), vehicle: saline with Tween-80) was 100 % of control and the T/C (dose: 400.0 mg/kg/injection, schedule: Q04DX003 (ip), vehicle: saline with Tween-80) was 90 % of control.

With `COc1ccc(/C=N/NC(=O)c2ccc(Cl)cc2Cl)cc1OC` the T/C [4] was 96 % of control, the T/C [5] was 96 % of control and the T/C [6] was 92 % of control.

For `[Se]=P(c1ccccc1)(N1CCCCC1)N1CCCCC1`, the T/C (dose: 12.5 mg/kg/injection, schedule: Q01DX001 (ip), vehicle: Klucel (hydroxypropylcellulose) (HPC)) was 106 % of control, the T/C (dose: 25.0 mg/kg/injection, schedule: Q01DX001 (ip), vehicle: Klucel (hydroxypropylcellulose) (HPC)) was 101 % of control and the T/C (dose: 50.0 mg/kg/injection, schedule: Q01DX001 (ip), vehicle: Klucel (hydroxypropylcellulose) (HPC)) was 93 % of control.

In the case of `COc1ccc2[nH]cc(C3CCCN4CCCCC34)c2c1` (stereo unspecified), the T/C [10] was 101 % of control and the T/C [11] was 99 % of control.
